This note sets out measurements from PMC11013038, “Design, Synthesis, and Evaluation of B-(Trifluoromethyl)phenyl Phosphine–Borane Derivatives as Novel Progesterone Receptor Antagonists” (Molecules, 2024).

SMILES strings stand for the structures. A value given as a limit tells only on which side of the number the result lay.

Data set [1] is described as follows: LogP (1-octanol/water partition coefficient) determined using HPLC. In kind it is physicochemical. Here is the method: Hydrophobicity is a key determinant of the activity and pharmacokinetics of biologically active compounds, and the octanol–water partition coefficient (P) and logarithm value (LogP) are widely used hydrophobicity parameters. The LogP values of the synthesized compounds were determined using HPLC [45, 46]. Table 1 summarizes the experimentally determined LogP values and calculated values. […] From the viewpoint of the phosphine structure, an increase in the number of carbon atoms increased hydrophobicity in a predictable manner.
The 1-octanol/water partition coefficient P was determined using HPLC based on the OECD Guideline for Testing Chemicals. A COSMOSIL Packed Column 5C18-MS-II (5 μm, 150 mm × 4.6 mm id, Nacalai Tesque, Inc., Kyoto, Japan) was fitted on an HPLC instrument (Multiwavelength Detector, MD-2010 Plus. JASCO, Tokyo, Japan) equipped with a pump (PU-2080, JASCO) and an oven (SSC-2120, Senshu Scientific Co., Ltd., Tokyo, Japan). The injection volume was 20 µL; the mobile phase was methanol–water 75% (v/v); and the flow rate was 1.0 mL/min in all cases. Compounds were detected by measuring the UV absorption at 240 nm. The temperature of the column was kept at 40.0 (± 0.1) °C during the measurement. The measurement was performed in triplicate, and the mean value was calculated. The dead time t0 was measured with thiourea as the unretained compound, and the capacity factor k was calculated using the equation logk = log (tr − t0/t0), where tr represents the retention time of the compound. A calibration graph was determined experimentally using reference compounds (4-methylphenol, 4-chlorophenol, 4-phenylphenol, diphenylether, fluoranthene, and dichlorodiphenyltrichloroethane) with known logP values. The LogP values of phosphine–boranes were calculated based on a calibration graph (LogP = 2.6269 logkw + 3.059, R^2 = 0.9915).

For data set [2], the target named is T1, progesterone receptor (PR) (Homo sapiens, UniProt P06401).
T1 construct: alkaline phosphatase assay with the T47D human breast cancer cell line; endogenous in cells; host or cells: T47D
T1 sequence (P06401 1-933): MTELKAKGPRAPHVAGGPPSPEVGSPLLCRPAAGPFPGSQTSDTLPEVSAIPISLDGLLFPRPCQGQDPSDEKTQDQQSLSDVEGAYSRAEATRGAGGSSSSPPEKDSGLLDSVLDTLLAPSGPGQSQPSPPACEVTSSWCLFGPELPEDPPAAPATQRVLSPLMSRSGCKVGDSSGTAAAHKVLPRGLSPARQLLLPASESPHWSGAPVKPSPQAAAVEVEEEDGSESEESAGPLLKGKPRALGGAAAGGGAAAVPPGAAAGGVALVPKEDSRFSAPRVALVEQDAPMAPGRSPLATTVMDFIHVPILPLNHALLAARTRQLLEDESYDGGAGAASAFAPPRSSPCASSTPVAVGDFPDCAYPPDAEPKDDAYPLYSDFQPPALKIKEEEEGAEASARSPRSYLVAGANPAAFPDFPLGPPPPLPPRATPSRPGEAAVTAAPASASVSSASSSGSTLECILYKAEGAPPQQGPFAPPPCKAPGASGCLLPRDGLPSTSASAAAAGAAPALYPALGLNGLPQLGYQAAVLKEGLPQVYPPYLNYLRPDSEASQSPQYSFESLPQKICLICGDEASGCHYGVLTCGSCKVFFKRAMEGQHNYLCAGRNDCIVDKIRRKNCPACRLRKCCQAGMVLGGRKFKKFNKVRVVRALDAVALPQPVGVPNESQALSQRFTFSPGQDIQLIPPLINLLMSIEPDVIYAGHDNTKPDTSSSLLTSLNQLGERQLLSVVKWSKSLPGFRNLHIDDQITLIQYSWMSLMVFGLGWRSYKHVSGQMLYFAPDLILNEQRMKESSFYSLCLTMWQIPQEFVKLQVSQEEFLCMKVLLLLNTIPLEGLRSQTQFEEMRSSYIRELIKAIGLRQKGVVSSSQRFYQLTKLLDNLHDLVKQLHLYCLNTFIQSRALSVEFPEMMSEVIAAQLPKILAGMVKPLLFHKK
In words: T47D alkaline phosphatase assay, PR antagonistic activity in the presence of 1 nM P4. The settings on record: T47D cells; for IC50: 1.0 nM P4, 48 h, mean ± SD from three independent experiments; for PR antagonistic activity (in words): in the presence of 1 nM P4. In kind it is cell-based. Here is the method:
The PR agonistic and antagonistic activities of the synthesized phosphine–borane derivatives were evaluated using an alkaline phosphatase assay with the T47D human breast cancer cell line. […] The basal alkaline phosphatase activity was also not affected by the tested compounds alone. […] The PR antagonistic activities of the compounds were assessed in the presence of 1 nM of P4 (5). We also calculated the molecular volume of each compound to investigate the structure–activity relationship (SAR). Table 2 summarizes the PR antagonistic activity and calculated volumes of the synthesized compounds. […] We investigated the binding affinity of the compounds toward the PR ligand-binding domain (LBD) using a fluorescence polarization assay system. […] We also investigated the activity of compounds 28 and 34 toward the androgen receptor (AR) by means of cell-proliferation promoting/inhibitory activity toward androgen-dependent SC-3 cells. […].
T47D alkaline phosphatase assays were performed as previously described, with minor modifications. Briefly, the human breast cancer cell line T47D (HMS LINCS database Accession Numbers: 50541) was routinely cultivated in RPMI 1640 medium with 10% FBS at 37 °C in a 5% CO2 humidified incubator. The cells were plated in 96-well plates and incubated overnight in a 5% CO2 humidified incubator at 37 °C. The next day, the cells were treated with a fresh medium containing the test compound in the presence of 1 nM of progesterone and further incubated for 48 h. The medium was aspirated, and the cells were fixed with 100 μL of 1.8% formalin–PBS. The fixed cells were washed with PBS, and 100 μL of an assay buffer (1 mg/mL p-nitrophenol phosphate in diethanolamine water solution, pH 9.0) was added. The mixture was incubated at room temperature for 2 h under light-shielded conditions. The absorbance was measured at 405 nm using a DTX 880 Multimode Detector (Beckman Coulter, Brea, CA, USA). All data points were measured in triplicate, and IC50 values were calculated from three independent experiments.

Setting [3] is: HPLC (OECD guideline), C18 column, methanol–water 75% (v/v), 40 °C, mean of triplicate.
[4] abbreviates: HPLC, tentative value: hydrophobicity beyond the range of the reference compounds (1.9 < LogP < 6.5).

In general, chromatographic logP refers to lipophilicity estimated from chromatographic retention. Low readings indicate a more hydrophilic compound, high ones a more lipophilic compound. The term IC50 denotes the concentration that inhibits the measured activity by half. `C[P+](C)(C)[BH2-]c1cccc(C(F)(F)F)c1` [Compound 16, B-3-(Trifluoromethyl)phenyl Trimethylphosphine–Borane]: in data set [1] (setting [3]), the chromatographic logP was determined as 3.65. For the same compound, in data set [2], the IC50 is over 10000 nM and the “PR antagonistic activity (in words)” value is recorded as “only weak potency”.
What is called melting point is the temperature of the solid-liquid transition. On to `C[P+](C)([BH2-]c1cccc(C(F)(F)F)c1)c1ccccc1` [Compound 17, B-(3-Trifluoromethyl)phenyl Dimethyl(phenyl)phosphine–Borane], for which the melting point fell in the range of 75 to 75.8 °C. The same compound came in with a chromatographic logP in data set [1] (setting [3]) of 4.54. In data set [2], the concentration for half-maximal inhibition (IC50) stood at 1160 ± 600 nM and the “PR antagonistic activity (in words)” value was “potent activities”.
Consider `CC[P+]([BH2-]c1cccc(C(F)(F)F)c1)(CC)CC` [Compound 18, B-3-(Trifluoromethyl)phenyl Triethylphosphine–Borane], for which the chromatographic logP in data set [1] (setting [3]) was determined as 4.88. In addition, in data set [2], the IC50 stood at 3670 ± 3340 nM and the “PR antagonistic activity (in words)” value was “moderate PR antagonistic activity”.
Compound `CC[P+]([BH2-]c1cccc(C(F)(F)F)c1)(CC)c1ccccc1` [Compound 19, B-3-(Trifluoromethyl)phenyl Diethyl(phenyl)phosphine–Borane] displayed a melting point of 40 to 40.5 °C. In data set [1] (setting [3]), this compound came in with a chromatographic logP of 5.24. In data set [2], the IC50 came out at 1120 ± 220 nM and the “PR antagonistic activity (in words)” value is “potent activities”.
In the case of `CC(C)[P+]([BH2-]c1cccc(C(F)(F)F)c1)(C(C)C)C(C)C` [Compound 20, B-3-(Trifluoromethyl)phenyl Triisopropylphosphine–Borane], in data set [1] (setting [3]), the chromatographic logP came to 5.89. Further, in data set [2], the IC50 was 1350 ± 470 nM and the “PR antagonistic activity (in words)” value is reported as “potent activities”.
The compound `CC(C)[P+]([BH2-]c1cccc(C(F)(F)F)c1)(c1ccccc1)C(C)C` [Compound 21, B-3-(Trifluoromethyl)phenyl Diisopropyl(phenyl)phosphine–Borane] came in with a melting point of 118.7 to 119.1 °C. For the same compound, in data set [1] (setting [3]), the chromatographic logP is 5.93. Moreover, in data set [2], the IC50 is 3350 ± 1490 nM and the “PR antagonistic activity (in words)” value is recorded as “moderate PR antagonistic activity”.
With `FC(F)(F)c1cccc([BH2-][P+](C2CC2)(C2CC2)C2CC2)c1` [Compound 22, B-3-(Trifluoromethyl)phenyl Tricyclopropylphosphine–Borane], the chromatographic logP in data set [1] (setting [3]) is 5.21. In data set [2], the IC50 was determined as 650 ± 170 nM and the “PR antagonistic activity (in words)” value was “potent activities”.
Take `CCCC[P+]([BH2-]c1cccc(C(F)(F)F)c1)(CCCC)CCCC` [Compound 23, B-3-(Trifluoromethyl)phenyl Tri-n-Butylphosphine–Borane]: the chromatographic logP in data set [1] (setting [4]) stood at 7.34. In data set [2], the concentration for half-maximal inhibition (IC50) is over 10000 nM and the “PR antagonistic activity (in words)” value was “only weak potency”.
The matching figures for `FC(F)(F)c1cccc([BH2-][P+](C2CCCC2)(C2CCCC2)C2CCCC2)c1` [Compound 24, B-3-(Trifluoromethyl)phenyl Tricyclopentylphosphine–Borane]: 7.84, 6640 ± 870 nM and “moderate PR antagonistic activity”.
The compound `FC(F)(F)c1cccc([BH2-][P+](C2CCCCC2)(C2CCCCC2)C2CCCCC2)c1` [Compound 25, B-3-(Trifluoromethyl)phenyl Tricyclohexylphosphine–Borane] gave a melting point of 100 to 100.5 °C. This compound also displayed a chromatographic logP in data set [1] (setting [4]) of 8.69. In data set [2], the IC50 was over 10000 nM and the “PR antagonistic activity (in words)” value is “only weak potency”.
The compound `FC(F)(F)c1cccc([BH2-][PH+](C2CCCCC2)C2CCCCC2)c1` [Compound 26, B-3-(Trifluoromethyl)phenyl Dicyclohexylphosphine–Borane] yielded a chromatographic logP in data set [1] (setting [4]) of 7.28.
Regarding `CN(C)[P+]([BH2-]c1cccc(C(F)(F)F)c1)(N(C)C)N(C)C` [Compound 27, B-3-(Trifluoromethyl)phenyl Tris(dimethylamino)phosphine–Borane], in data set [1] (setting [3]), the chromatographic logP was 5.39. Further, in data set [2], the IC50 was found to be 1200 ± 630 nM and the “PR antagonistic activity (in words)” value is “potent activities”.
In the case of `C[P+](C)([BH2-]c1ccc(C(F)(F)F)cc1)c1ccccc1` [Compound 29, B-4-(Trifluoromethyl)phenyl Dimethyl(phenyl)phosphine–Borane], the melting point lay within 78 to 78.3 °C. The compound also yielded a chromatographic logP in data set [1] (setting [3]) of 4.65. In data set [2], the IC50 is 1610 ± 870 nM.
Compound `CC[P+]([BH2-]c1ccc(C(F)(F)F)cc1)(CC)CC` [Compound 30, B-4-(Trifluoromethyl)phenyl Triethylphosphine–Borane] displayed a chromatographic logP in data set [1] (setting [3]) of 4.99. In data set [2], the IC50 was 1760 ± 1440 nM.
Compound `CC[P+]([BH2-]c1ccc(C(F)(F)F)cc1)(CC)c1ccccc1` [Compound 31, B-4-(Trifluoromethyl)phenyl Diethyl(phenyl)phosphine–Borane] came in with a melting point of 62 to 62.3 °C. The compound further had a chromatographic logP in data set [1] (setting [3]) of 5.41. Also, the IC50 in data set [2] stood at 1780 ± 970 nM.
The compound `CC(C)[P+]([BH2-]c1ccc(C(F)(F)F)cc1)(C(C)C)C(C)C` [Compound 32, B-4-(Trifluoromethyl)phenyl Triisopropylphosphine–Borane] gave a melting point of 59 to 59.4 °C. Moreover, the chromatographic logP in data set [1] (setting [3]) worked out at 6.06. In addition, the IC50 in data set [2] was 1510 ± 530 nM.
In turn, `CC(C)[P+]([BH2-]c1ccc(C(F)(F)F)cc1)(c1ccccc1)C(C)C` [Compound 33, B-4-(Trifluoromethyl)phenyl Diisopropyl(phenyl)phosphine–Borane] yielded a melting point of 94.8 to 95.2 °C. The compound also displayed a chromatographic logP in data set [1] (setting [3]) of 6.15. The IC50 in data set [2] worked out at 2010 ± 580 nM.
As to `FC(F)(F)c1ccc([BH2-][PH+](C2CCCCC2)C2CCCCC2)cc1` [Compound 38, B-4-(Trifluoromethyl)phenyl Dicyclohexylphosphine–Borane], the melting point lay in the range of 52.7 to 53.7 °C. This compound also displayed a chromatographic logP in data set [1] (setting [4]) of 7.34.
